Tests used:
Format in all cases: biochemical
[1] = biological target: PHKG2 (Homo sapiens, UniProt P15735); assay: Kinase selectivity panel: PHKG2
[2] = biological target: CK1 gamma2 (Homo sapiens, UniProt P78368); assay: Kinase selectivity panel: CK1 gamma2
[3] = biological target: LCK (Homo sapiens, UniProt P06239); assay: Kinase selectivity panel: LCK
[4] = biological target: DYRK3 (Homo sapiens, UniProt O43781); assay: Kinase selectivity panel: DYRK3
[5] = biological target: JNK1 (Homo sapiens, UniProt P45983); assay: Kinase selectivity panel: JNK1
Chain of JNK1 (P45983 whole entry, species assumed): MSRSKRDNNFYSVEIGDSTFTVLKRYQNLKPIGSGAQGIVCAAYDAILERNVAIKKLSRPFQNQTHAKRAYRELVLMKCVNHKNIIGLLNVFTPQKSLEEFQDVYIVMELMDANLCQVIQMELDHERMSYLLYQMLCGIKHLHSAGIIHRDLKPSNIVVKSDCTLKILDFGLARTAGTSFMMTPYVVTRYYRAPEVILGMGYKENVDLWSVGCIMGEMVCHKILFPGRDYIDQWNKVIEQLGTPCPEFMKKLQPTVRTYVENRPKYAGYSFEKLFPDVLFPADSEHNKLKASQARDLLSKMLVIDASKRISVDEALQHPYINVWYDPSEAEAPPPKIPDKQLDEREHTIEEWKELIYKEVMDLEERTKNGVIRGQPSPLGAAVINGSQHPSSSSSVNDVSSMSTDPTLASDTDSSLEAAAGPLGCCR

[6] = biological target: INSR (Homo sapiens, UniProt P06213); assay: Kinase selectivity panel: INSR
[7] = biological target: ERK2 (Homo sapiens, UniProt P28482); assay: Kinase selectivity panel: ERK2
Chain of ERK2 (P28482 whole entry, species assumed): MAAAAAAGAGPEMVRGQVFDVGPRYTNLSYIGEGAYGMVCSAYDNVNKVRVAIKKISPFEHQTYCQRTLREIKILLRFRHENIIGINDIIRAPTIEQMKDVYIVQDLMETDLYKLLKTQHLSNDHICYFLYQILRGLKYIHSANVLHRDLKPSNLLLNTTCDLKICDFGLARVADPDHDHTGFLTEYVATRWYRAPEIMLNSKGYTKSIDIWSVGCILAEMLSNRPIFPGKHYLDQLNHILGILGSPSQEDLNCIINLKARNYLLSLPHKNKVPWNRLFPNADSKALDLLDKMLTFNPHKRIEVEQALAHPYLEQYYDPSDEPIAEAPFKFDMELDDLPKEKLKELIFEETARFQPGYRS

[8] = biological target: SRC (Homo sapiens, UniProt P12931); assay: Kinase selectivity panel: SRC
Chain of SRC (P12931 whole entry, species assumed): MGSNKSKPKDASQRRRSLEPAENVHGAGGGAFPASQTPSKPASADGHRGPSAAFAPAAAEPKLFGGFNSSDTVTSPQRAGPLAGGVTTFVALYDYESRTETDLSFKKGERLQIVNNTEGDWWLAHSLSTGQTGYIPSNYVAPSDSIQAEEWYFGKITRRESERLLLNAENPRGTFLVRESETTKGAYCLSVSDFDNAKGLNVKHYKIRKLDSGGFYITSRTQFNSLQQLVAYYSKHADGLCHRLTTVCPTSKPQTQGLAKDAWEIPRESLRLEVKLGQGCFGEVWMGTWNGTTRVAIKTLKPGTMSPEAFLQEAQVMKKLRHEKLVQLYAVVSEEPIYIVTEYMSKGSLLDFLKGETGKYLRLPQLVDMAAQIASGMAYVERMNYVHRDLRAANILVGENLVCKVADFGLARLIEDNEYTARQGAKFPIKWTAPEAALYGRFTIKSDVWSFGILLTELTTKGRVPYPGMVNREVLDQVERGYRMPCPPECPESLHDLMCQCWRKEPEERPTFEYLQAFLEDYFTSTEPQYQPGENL

[9] = biological target: EPHA2 (Homo sapiens, UniProt P29317); assay: Kinase selectivity panel: EPHA2
[10] = biological target: PLK1 (Homo sapiens, UniProt P53350); assay: Kinase selectivity panel: PLK1
[11] = biological target: IGF1R (Homo sapiens, UniProt P08069); assay: Kinase selectivity panel: IGF1R
[12] = biological target: TAK1-TAB1 (Homo sapiens, UniProt O43318); assay: Kinase selectivity panel: TAK1-TAB1
[13] = biological target: MARK2 (Homo sapiens, UniProt Q7KZI7); assay: Kinase selectivity panel: MARK2
Chain of MARK2 (Q7KZI7 whole entry, species assumed): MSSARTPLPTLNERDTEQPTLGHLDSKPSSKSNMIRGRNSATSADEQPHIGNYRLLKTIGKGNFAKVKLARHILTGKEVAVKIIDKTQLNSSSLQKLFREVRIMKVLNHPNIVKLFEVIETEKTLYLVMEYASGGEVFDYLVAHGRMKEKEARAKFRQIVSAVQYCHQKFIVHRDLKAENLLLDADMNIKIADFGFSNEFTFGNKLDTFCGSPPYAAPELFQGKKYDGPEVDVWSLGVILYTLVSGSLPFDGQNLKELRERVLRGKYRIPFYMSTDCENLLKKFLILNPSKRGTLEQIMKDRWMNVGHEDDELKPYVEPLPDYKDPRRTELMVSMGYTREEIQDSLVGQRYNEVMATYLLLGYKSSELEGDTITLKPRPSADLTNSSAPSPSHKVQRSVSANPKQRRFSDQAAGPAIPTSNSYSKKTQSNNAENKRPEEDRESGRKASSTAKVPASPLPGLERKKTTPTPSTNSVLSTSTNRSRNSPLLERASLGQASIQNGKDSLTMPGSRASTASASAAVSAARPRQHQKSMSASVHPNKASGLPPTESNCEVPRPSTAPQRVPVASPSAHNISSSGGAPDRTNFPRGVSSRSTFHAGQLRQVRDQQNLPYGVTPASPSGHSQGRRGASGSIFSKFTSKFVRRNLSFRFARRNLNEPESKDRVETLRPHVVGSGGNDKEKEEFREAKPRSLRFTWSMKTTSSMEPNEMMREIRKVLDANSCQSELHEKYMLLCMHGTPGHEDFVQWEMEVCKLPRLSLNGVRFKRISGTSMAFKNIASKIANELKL

[14] = biological target: BTK (Homo sapiens, UniProt Q06187); assay: Kinase selectivity panel: BTK
[15] = biological target: PKA (Homo sapiens, UniProt P17612); assay: Kinase selectivity panel: PKA
[16] = biological target: T1, CHEK1 (Homo sapiens, UniProt O14757); assay: Kinase selectivity panel: CHEK1
T1 sequence (O14757 1-476): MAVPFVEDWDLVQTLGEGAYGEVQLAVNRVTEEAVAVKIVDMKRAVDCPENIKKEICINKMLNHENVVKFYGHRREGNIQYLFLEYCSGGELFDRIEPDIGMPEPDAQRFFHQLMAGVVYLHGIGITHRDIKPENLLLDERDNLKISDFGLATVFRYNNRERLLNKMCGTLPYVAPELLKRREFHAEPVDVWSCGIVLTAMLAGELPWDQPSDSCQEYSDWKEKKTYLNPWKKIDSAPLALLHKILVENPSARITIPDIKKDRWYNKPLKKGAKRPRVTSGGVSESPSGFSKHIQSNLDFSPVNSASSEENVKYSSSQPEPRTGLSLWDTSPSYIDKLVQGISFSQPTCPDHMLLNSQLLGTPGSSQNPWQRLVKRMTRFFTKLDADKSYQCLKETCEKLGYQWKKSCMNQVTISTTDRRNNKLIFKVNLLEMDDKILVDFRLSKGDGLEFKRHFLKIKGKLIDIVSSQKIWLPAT

[17] = biological target: ROCK1 (Homo sapiens, UniProt Q13464); assay: Kinase selectivity panel: ROCK1
[18] = biological target: RSK2 (Homo sapiens, UniProt P51812); assay: Kinase selectivity panel: RSK2
[19] = biological target: MAPKAPK2 (Homo sapiens, UniProt P49137); assay: Kinase selectivity panel: MAPKAPK2
[20] = biological target: NEK1 (Homo sapiens, UniProt Q96PY6); assay: Kinase selectivity panel: NEK1
[21] = biological target: BRAF (Homo sapiens, UniProt P15056); assay: Kinase selectivity panel: BRAF
[22] = biological target: AMPK A1/B1/G1 (Homo sapiens, UniProt Q13131); assay: Kinase selectivity panel: AMPK A1/B1/G1
[23] = biological target: TRKA (Homo sapiens, UniProt P04629); assay: Kinase selectivity panel: TRKA
[24] = biological target: AKT1 (Homo sapiens, UniProt P31749); assay: Kinase selectivity panel: AKT1
Chain of AKT1 (P31749 whole entry, species assumed): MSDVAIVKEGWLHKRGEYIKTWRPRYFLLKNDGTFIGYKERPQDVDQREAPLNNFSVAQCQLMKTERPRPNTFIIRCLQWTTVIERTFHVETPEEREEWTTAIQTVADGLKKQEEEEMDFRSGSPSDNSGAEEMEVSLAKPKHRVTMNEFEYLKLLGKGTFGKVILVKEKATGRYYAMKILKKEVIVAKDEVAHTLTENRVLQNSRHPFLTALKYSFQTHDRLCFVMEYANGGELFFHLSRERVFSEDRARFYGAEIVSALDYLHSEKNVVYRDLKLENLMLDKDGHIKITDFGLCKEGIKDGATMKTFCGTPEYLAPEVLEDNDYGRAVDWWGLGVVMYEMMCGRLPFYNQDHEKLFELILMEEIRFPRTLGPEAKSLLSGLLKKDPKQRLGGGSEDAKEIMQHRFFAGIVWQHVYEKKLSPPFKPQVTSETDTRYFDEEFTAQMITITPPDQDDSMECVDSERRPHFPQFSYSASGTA

[25] = biological target: CK2 alpha 1 (Homo sapiens, UniProt P68400); assay: Kinase selectivity panel: CK2 alpha 1
[26] = biological target: JAK3 (Homo sapiens, UniProt P52333); assay: Kinase selectivity panel: JAK3
[27] = biological target: ALK4 (Homo sapiens, UniProt P36896); assay: Kinase selectivity panel: ALK4
[28] = biological target: P70S6K (Homo sapiens, UniProt P23443); assay: Kinase selectivity panel: P70S6K
[29] = biological target: PIM1 (Homo sapiens, UniProt P11309); assay: Kinase selectivity panel: PIM1
Chain of PIM1 (P11309 whole entry, species assumed): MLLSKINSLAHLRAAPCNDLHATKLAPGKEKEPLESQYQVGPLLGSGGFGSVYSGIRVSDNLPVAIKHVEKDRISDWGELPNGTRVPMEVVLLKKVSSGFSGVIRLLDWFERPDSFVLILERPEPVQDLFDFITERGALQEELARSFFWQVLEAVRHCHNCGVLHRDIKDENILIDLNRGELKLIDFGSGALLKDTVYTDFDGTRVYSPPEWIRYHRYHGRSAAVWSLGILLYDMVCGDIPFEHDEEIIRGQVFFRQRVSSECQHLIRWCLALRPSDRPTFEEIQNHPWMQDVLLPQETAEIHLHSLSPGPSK

[30] = biological target: GSK3beta (Homo sapiens, UniProt P49841); assay: Kinase selectivity panel: GSK3beta
Chain of GSK3beta (P49841 whole entry, species assumed): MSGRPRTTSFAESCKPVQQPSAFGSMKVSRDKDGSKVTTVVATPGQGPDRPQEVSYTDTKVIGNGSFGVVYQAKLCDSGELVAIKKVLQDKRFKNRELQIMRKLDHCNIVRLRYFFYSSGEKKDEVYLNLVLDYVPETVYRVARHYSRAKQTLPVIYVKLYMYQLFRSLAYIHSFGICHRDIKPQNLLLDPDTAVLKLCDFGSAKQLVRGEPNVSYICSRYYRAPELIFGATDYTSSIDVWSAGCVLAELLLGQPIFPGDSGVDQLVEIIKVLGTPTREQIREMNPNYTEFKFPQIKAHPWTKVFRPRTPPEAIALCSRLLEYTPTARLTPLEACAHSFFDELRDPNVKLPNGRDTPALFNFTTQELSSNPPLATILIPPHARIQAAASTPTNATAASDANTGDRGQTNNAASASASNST

[31] = biological target: KIT (Homo sapiens, UniProt P10721); assay: Kinase selectivity panel: KIT
Chain of KIT (P10721 26-976, species assumed): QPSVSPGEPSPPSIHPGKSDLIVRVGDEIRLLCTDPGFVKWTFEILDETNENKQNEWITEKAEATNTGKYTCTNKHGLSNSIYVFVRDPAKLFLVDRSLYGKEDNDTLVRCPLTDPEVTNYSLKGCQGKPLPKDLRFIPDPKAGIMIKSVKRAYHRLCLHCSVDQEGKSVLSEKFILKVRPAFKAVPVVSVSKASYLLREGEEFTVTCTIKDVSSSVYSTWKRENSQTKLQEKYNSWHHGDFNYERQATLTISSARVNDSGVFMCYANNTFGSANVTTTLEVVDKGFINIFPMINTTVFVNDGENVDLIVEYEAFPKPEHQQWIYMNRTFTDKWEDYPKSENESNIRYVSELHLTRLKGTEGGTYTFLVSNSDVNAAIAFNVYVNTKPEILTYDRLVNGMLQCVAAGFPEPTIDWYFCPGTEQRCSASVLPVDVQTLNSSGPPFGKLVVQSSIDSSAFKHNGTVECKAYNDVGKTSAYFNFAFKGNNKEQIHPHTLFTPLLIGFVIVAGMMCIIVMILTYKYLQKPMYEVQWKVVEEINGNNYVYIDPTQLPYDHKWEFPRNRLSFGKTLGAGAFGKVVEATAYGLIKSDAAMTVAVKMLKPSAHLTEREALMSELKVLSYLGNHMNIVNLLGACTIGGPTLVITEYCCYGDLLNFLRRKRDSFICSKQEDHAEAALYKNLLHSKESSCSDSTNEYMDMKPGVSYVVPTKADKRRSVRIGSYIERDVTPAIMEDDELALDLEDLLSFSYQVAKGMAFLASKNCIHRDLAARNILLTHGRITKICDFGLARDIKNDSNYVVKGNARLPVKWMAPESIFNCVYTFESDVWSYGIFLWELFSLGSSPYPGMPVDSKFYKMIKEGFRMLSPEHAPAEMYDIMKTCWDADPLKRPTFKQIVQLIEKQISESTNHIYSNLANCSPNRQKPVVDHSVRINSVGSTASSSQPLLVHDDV

[32] = biological target: cMet (Homo sapiens, UniProt P08581); assay: Kinase selectivity panel: cMet
[33] = biological target: SYK (Homo sapiens, UniProt P43405); assay: Kinase selectivity panel: SYK
[34] = biological target: MLK1 (Homo sapiens, UniProt P80192); assay: Kinase selectivity panel: MLK1

Chain of DYRK3 (O43781 whole entry, species assumed): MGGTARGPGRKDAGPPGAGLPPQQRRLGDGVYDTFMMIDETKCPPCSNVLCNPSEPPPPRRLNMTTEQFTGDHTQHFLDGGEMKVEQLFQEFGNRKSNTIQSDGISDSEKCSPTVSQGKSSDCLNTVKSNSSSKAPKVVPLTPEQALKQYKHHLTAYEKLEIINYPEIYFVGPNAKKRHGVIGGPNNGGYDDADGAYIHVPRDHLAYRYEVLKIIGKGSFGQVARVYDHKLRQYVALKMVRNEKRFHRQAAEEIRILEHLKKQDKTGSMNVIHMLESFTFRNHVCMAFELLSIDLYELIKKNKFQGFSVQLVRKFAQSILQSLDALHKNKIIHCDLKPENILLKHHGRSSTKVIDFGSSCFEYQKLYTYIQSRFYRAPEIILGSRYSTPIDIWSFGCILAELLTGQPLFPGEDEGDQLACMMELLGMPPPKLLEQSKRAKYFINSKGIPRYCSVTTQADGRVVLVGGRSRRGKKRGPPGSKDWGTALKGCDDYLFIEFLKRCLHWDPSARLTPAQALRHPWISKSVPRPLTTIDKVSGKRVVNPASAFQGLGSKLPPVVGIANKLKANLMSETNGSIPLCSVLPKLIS

An inhibition at 0.1 µM [1] of 3%, an inhibition at 0.1 µM [2] of 6% and an inhibition at 0.1 µM [3] of 3% were found for `COc1ccc2c(c1)/C(=C/c1cnc(C3CCOCC3)[nH]1)C(=O)N2` [Compound 18, (3Z)-5-methoxy-3-[(2-tetrahydropyran-4-yl-1H-imidazol-5-yl)methylene]indolin-2-one] in this work. It also gave an inhibition at 0.1 µM [4] of 2%, an inhibition at 0.1 µM [5] of -5% and an inhibition at 0.1 µM [6] of 4%. For the same compound, the inhibition at 0.1 µM [7] was 8%, the inhibition at 0.1 µM [8] was 13% and the inhibition at 0.1 µM [9] was 2%. For the same compound, the inhibition at 0.1 µM [10] was 12%, the inhibition at 0.1 µM [11] was 7% and the inhibition at 0.1 µM [12] was -3%. The IC50 [13] was 7.94 µM, the inhibition at 0.1 µM ([13]; @0.1 uM) was 5% and the inhibition at 0.1 µM [14] was 4%. It also gave an inhibition at 0.1 µM [15] of 2%, an IC50 [16] greater than 10 µM and an inhibition at 0.1 µM ([16]; @0.1 uM) of 3%. It also gave an inhibition at 0.1 µM [17] of 1%, an inhibition at 0.1 µM [18] of 3% and an inhibition at 0.1 µM [19] of 4%. It also gave an inhibition at 0.1 µM [20] of 10%, an inhibition at 0.1 µM [21] of 18% and an inhibition at 0.1 µM [22] of -1%. For the same compound, the inhibition at 0.1 µM [23] was 11%, the inhibition at 0.1 µM [24] was -2% and the inhibition at 0.1 µM [25] was 6%. For the same compound, the inhibition at 0.1 µM [26] was 2%, the inhibition at 0.1 µM [27] was -3% and the inhibition at 0.1 µM [28] was 5%. It also gave an inhibition at 0.1 µM [29] of -2%, an inhibition at 0.1 µM [30] of 0% and an inhibition at 0.1 µM [31] of 4%. The inhibition at 0.1 µM [32] was 7%, the inhibition at 0.1 µM [33] was 8% and the inhibition at 0.1 µM [34] was -17%.

From patent US20140205537A1, “LRRK2 INHIBITORS” (ZENOBIA THERAPEUTICS, INC., priority 2011, published 2014)
